# According to PMC10896213, “Identification of the KIF18A alpha-4 helix as a therapeutic target for chromosomally unstable tumor cells” (Frontiers in Molecular Biosciences, 2023):
# pIC50: −log10 of the molar value.
# Biological target: T1, KIF18A (Homo sapiens, UniProt Q8NI77)
# T1 construct: KIF18A (1−417); with pig microtubules (tubulin)
# T1 sequence (Q8NI77 1-417): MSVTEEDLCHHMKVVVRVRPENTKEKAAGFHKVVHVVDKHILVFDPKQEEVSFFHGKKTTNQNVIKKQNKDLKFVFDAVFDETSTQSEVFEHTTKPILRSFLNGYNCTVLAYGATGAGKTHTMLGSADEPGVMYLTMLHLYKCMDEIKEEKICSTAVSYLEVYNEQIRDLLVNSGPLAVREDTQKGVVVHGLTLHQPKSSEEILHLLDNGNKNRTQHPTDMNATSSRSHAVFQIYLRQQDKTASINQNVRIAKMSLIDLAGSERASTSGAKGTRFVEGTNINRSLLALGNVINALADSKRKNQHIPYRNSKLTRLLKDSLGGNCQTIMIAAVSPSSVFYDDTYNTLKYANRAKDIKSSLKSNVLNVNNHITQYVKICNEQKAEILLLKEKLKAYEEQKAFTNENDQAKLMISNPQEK
# Assay: microtubule-stimulated ATPase assay (ADP-Glo)
# Assay type: biochemical
smiles,measurement,value
Cc1cc(NC(=O)c2cnc(NS(=O)(=O)CCO)cc2N2CCC3(CC2)CC3)nc(N2CCC(F)(F)CC2)n1 [Compound 3],pIC50,8.09
